Data: paper PMC8453745, “Human Mass Balance and Metabolite Profiling of [^14C]‐Pamiparib, a Poly (ADP‐Ribose) Polymerase Inhibitor, in Patients With Advanced Cancer” (Clinical Pharmacology in Drug Development, 2021)
“Also recorded” adds a separate entry of the source.

Tests used:
[1] = metabolite profiling in pooled urine (radioprofiling, LC‐MS); type: in vivo, human; details: pooled urine 0‐96 hours, mean
Description: (§1) Total radioactivity concentrations of [^14C]‐pamiparib in whole blood, plasma, urine, and feces were determined by liquid scintillation counting (LSC). Radioactivity in each sample was measured for 5 minutes using a Packard Tri‐Carb liquid scintillation counter model 2100TR, 2900TR, or 3100TR (Canberra Packard, Pangbourne, Berks, Australia) with the facilities for computing quench‐corrected disintegrations per minute. Metabolite identification in plasma, urine, and feces was conducted by LC‐MS. Quantitation of the metabolites present in plasma, urine, and feces was based on the profiles of radioactivity. The limit of quantitation for radioactivity in plasma, urine, and feces was set at 1% of each chromatographic analysis (run) and 10 counts per minute (cpm) peak height; therefore, radioactive peaks that were <1% of the total run or <10 cpm peak height were reported as not detected. In addition, pamiparib and standards were reported, regardless of the percentage of run or peak height.
Each aliquot of urine (about 1 mL, weighed) was added directly to liquid scintillant prior to LSC. For metabolite profiling, urine samples collected 0‐4, 4‐8, 8‐12, 12‐24, 24‐48, 48‐72, and 72‐96 hours postdose were pooled by individual patient to generate 0‐ to 96‐hour pooled samples including 0.2% of each sample by weight. The radioactivity in each pooled sample was determined by LSC. The total amount of urine collected was factored into the recovery calculation. […] Pooled urine samples were analyzed by LC‐MS, with eluent fractions collected at 10‐second intervals into 96‐well plates containing solid scintillant. Radioactivity in each well was determined using TopCount analysis, and radiochemical profiles were generated based on radioactivity counts.
(§2) Metabolic profiling was performed on plasma, urine, and feces samples using LC‐MS. Shimadzu/Nexera LC‐30AD pumps and Shimadzu/Prominence DGU‐20A5R degasser were used with Shimadzu/Prominence controller CBM‐20A. The high‐pressure liquid chromatograph (HPLC) was equipped with an autoinjector (Shimadzu/Nexera SIL‐30ACMP) set at 10°C and a fraction collector (Leap Technologies PAL HTC‐xt) set at 15°C. Thermo Fisher Scientific Q Exactive was the mass spectrometer system.

[2] = metabolite profiling in pooled feces (radioprofiling, LC‐MS); type: in vivo, human; details: pooled feces 0‐120 hours, mean
Description: as §1
Portions of fecal homogenates (about 200‐500 mg) were subjected to combustion analysis prior to LSC. For metabolite profiling, feces samples collected 0‐24, 24‐48, 48‐72, 72‐96, and 96‐120 hours postdose were pooled by individual patient to generate 0‐ to 120‐hour pooled samples including 0.5% of each sample by weight. Feces were pooled per patient (if required) according to the appropriate 24‐hour collection period. The samples were homogenized in deionized water, avoiding excessive dilution (data on file). The radioactivity in each pooled sample was determined by LSC. The total amount of feces collected was factored into the recovery calculation. Approximately 1.6 to 2.7 g of each pooled feces sample was extracted twice with 6 mL of 0.1% formic acid in ACN. […] The combined supernatants were evaporated to dryness under nitrogen and reconstituted in 300 μL of MeOH. […] The reconstituted samples were analyzed by LC‐MS, with eluent fractions collected, and radiochemical profiles were generated based on radioactivity counts. […]

rCYP3A4 = target: T1, rCYP3A4 (Homo sapiens, UniProt P08684); experiment: incubation of pamiparib with recombinant CYP3A4; type: in vitro ADME; details: 1 μM pamiparib, 50 pmol/mL, 90 minutes
T1 construct: purchased Corning (Woburn, New York)
T1 sequence (P08684 whole entry): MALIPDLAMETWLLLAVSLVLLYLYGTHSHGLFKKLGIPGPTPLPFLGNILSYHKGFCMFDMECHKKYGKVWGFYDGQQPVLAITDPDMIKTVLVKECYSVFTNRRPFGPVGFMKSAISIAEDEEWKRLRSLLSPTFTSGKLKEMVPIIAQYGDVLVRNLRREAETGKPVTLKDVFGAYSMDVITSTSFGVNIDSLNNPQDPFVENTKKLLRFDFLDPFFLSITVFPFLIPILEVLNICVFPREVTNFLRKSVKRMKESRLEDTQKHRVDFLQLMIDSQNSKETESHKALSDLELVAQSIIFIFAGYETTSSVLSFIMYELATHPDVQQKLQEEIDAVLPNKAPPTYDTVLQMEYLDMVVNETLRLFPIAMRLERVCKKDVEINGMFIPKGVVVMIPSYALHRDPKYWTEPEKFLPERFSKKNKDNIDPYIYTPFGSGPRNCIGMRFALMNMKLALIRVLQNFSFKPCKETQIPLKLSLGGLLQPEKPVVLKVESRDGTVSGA
Description: (§3) Metabolic stability in human liver microsomes (HLMs) and cytochrome P450 (CYP450) phenotyping assays were conducted in 3D BioOptima (Suzhou, China) using validated methodology, [13] to determine the intrinsic clearance and enzymes responsible for metabolism of pamiparib. HLMs for microsome stability was from BD Biosciences (Woburn, New York). For phenotyping, HLMs and recombinant P450 (rCYP) were from Corning (Woburn, New York). Pamiparib (1 μM) was incubated with pooled HLM (0.5 mg/mL), NADPH (1 mM), and MgCl2 (3 mM) terminated at 0, 5, 15, 30, 60, and 90 minutes. The intrinsic clearance was calculated as 0.693/(t1/2 × HLM concentration), where t1/2 is the half‐life of pamiparib determined in HLMs. For phenotyping in HLMs, pamiparib (1 μM) was incubated in the absence or presence of isoform‐selective inhibitors: 0.2 μM α‐naphthoflavone for CYP1A2, 2 μM clopidogrel for CYP2B6, 16 μM montelukast for CYP2C8, 10 μM sulfaphenazole for CYP2C9, 30 μM nootkatone for CYP2C19, 2 μM quinidine for CYP2D6, and 1 μM ketoconazole for CYP3A. The following isoform‐selective probe substrates served as positive controls: 40 μM phenacetin for CYP1A2, 100 μM bupropion for CYP2B6, 2 μM amodiaquine for CYP2C8, 5 μM diclofenac for CYP2C9, 40 μM S‐mephenytoin for CYP2C19, 5 μM dextromethorphan for CYP2D6, and 2 μM midazolam for CYP3A4. […] Pamiparib, M1, and M2 were analyzed by LC‐MS/MS.

rCYP2D6 = target: T2, rCYP2D6 (Homo sapiens, UniProt P10635); experiment: incubation of pamiparib with recombinant CYP2D6; type: in vitro ADME; details: 1 μM pamiparib, 50 pmol/mL, 90 minutes
T2 construct: purchased Corning (Woburn, New York)
T2 sequence (P10635 whole entry): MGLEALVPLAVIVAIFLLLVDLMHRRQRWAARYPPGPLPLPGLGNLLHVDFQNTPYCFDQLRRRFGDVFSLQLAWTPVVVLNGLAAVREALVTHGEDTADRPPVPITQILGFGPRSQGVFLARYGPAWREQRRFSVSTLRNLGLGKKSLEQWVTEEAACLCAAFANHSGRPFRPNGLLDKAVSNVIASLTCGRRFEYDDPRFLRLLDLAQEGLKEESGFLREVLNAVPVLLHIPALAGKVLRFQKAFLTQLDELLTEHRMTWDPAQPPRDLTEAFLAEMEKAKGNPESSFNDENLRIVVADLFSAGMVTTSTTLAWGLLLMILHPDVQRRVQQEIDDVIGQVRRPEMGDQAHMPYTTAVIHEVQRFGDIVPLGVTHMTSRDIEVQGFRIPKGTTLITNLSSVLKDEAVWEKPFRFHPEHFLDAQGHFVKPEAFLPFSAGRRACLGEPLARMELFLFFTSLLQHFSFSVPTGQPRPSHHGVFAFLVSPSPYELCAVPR
Description: as §3

[3] = system: rCYP1A2, rCYP2B6, rCYP2C8, rCYP2C9, rCYP2C19, rCYP2D6, rCYP3A4; experiment: incubation of pamiparib with recombinant P450 isoform panel; type: in vitro ADME; details: 1 μM pamiparib, 50 pmol/mL, 90 minutes
Description: as §3

[4] = metabolite profiling in plasma (radioprofiling, LC‐MS); type: in vivo, human; details: plasma
Description: as §1
For metabolite profiling in plasma, ≈1.9 to 2.8 g of each plasma sample collected 0.5, 1, 2, 6, 12, and 24 hours postdose was extracted twice with 6 mL of 0.1% formic acid in acetonitrile (ACN). Duplicate aliquots were analyzed by LSC to determine extraction recoveries, which ranged from 77.4% to 98.5%. The combined supernatants were evaporated to dryness under nitrogen and reconstituted in 2:1 reverse osmosis water:methanol (MeOH). Duplicate aliquots were analyzed by LSC to determine reconstitution recoveries, which ranged from 89.3% to 115%. The reconstituted samples were analyzed by LC‐MS, with eluent fractions collected at 10‐second intervals into 96‐well plates containing solid scintillant. Radioactivity in each well was determined using TopCount analysis, and radiochemical profiles were generated based on radioactivity counts.
as §2

rCYP2C8 = target: T3, rCYP2C8 (Homo sapiens, UniProt P10632); experiment: incubation of pamiparib with recombinant CYP2C8; type: in vitro ADME; details: 1 μM pamiparib, 50 pmol/mL, 90 minutes
T3 construct: purchased Corning (Woburn, New York)
T3 sequence (P10632 1-490): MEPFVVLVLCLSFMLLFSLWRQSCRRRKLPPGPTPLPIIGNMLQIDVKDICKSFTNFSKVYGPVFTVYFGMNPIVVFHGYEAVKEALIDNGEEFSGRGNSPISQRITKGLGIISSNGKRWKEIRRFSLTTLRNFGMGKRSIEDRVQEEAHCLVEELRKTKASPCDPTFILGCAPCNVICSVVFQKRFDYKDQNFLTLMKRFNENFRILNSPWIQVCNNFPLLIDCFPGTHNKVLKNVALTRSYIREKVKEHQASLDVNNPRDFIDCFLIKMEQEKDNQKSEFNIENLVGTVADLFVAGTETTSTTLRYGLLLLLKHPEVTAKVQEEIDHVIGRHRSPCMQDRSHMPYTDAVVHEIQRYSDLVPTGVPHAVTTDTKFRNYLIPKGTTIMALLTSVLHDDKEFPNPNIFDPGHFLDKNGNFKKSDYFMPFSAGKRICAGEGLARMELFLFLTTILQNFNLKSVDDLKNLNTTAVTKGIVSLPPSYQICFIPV
Description: as §3

[5] = stability of metabolite M2; type: physicochemical; details: dehydrates in the LC‐MS source or under other conditions

Row | SMILES | % of Radioactive Dose, Urine [1] | % of Radioactive Dose, Feces [2] | metabolite formation after incubation of pamiparib with rCYP3A4 (rCYP3A4) | metabolite formation after incubation of pamiparib with rCYP2D6 (rCYP2D6) | metabolite detection across rCYP isoforms [3] | Percent of Total Radioactivity Concentration (AUC0‐24h) ([4]; patient S103) [%] | Percent of Total Radioactivity Concentration (AUC0‐24h) ([4]; patient S104) [%] | metabolite formation after incubation of pamiparib with rCYP2C8 (rCYP2C8) | stability of the metabolite [5]
1 | C[C@]1(CCCO)NCC2=NNC(=O)c3cc(F)cc4[nH]c1c2c34 [Metabolite M10, pamiparib hydrate] | 8.05% | 1.3% | – | – | – | – | – | – | –
2 | C[C@]12CCC[N+]1([O-])CC1=NNC(=O)c3cc(F)cc4[nH]c2c1c34 (stereo partly drawn) [Metabolite M1] | 0.53% | – | detected; also recorded: generated | detected; also recorded: generated | not detected with other rCYP isoforms | – | – | – | –
3 | C[C@]12CCC(O)N1CC1=NNC(=O)c3cc(F)cc4[nH]c2c1c34 (stereo partly drawn) [Metabolite M2] | not identified | not identified | higher levels | higher levels; also recorded: generated | detected in all isoforms except rCYP2C9 | 2.00 | 4.38 | higher levels; also recorded: generated | not stable
